According to patent US8007836B2, “Cleome spinosa extract used in pharmaceutical preparations and cosmetic compositions” (Pierre Fabre Dermo-Cosmetique, priority 2007, dated 2011):

Tested on: human hair follicles
Assay: Growth of cultivated entire human hair follicles from scalp ex vivo, 14 days of culture
Format: cell-based
Details: vs control non-treated follicles, minoxidil concentration not given
Description: Study of the effect of a Cleome spinosa extract on the growth of cultivated human hair follicles.
Evaluation of minoxidil, a reference molecule, was conducted in parallel.
Hair follicles originate from the human scalp from plastic surgery departments of hospitals or clinics (two donors).
The skin is shaved and washed in 6 baths of antibiotics. The follicles in the anagen phase are recognizable because they are very vascularized, and then isolated from the skin under a binocular magnifier and cleared of fat.
They are then incubated at 37° C. in 24-well culture dishes in an adequate culture medium containing the products to be tested.
The growth of the stem of the hair follicle is measured with plotting paper under a binocular magnifier on days 0, 4, 5, 7, 9, 12 or 14.
The determination of the growth and activity percentages of the hydroalcoholic extract of Cleome spinosa was carried out after 4 or 5, 7 or 8, 12 and 14 days of treatment of the hair follicles as compared with control non-treated follicles.
Notation: Tx is the time x after treatment • T0 is time 0 of the beginning of the treatment
The growth percentage is equal to (Tx measurement−T0 measurement)/T0 measurement×100
The activity of the treatment is calculated in the following way: [(Tx treated measurement−T0 treated measurement)−(Tx control measurement−T0 control measurement)]/(Tx control measurement−T0 control measurement)×100

With `Nc1cc(N2CCCCC2)nc(N)[n+]1[O-]` [Minoxidil, 2,4-diamino-6-piperidinopyrimidine-3-oxide] the “% of activity” value (D4/D5 of treatment) was 55%, the “% of activity” value (D8/D7 of treatment) was 41% and the “% of activity” value (D12 of treatment) was 21%. The “% of activity” value (D14 of treatment) was 17%.
